Assay results from patent US10603384B2, “Pharmaceutical composition containing an antivirally active dihydroquinazoline derivative” (AICURIS GMBH & CO. KG, priority 2012, dated 2020).

Tested on: HCMV AD 169 RV-HG
Assay: HCMV fluorescence-reduction test (GFP-RA)
Assay type: cell-based, human cytomegalovirus
Conditions: Human betaherpesvirus 5, AD169, NHDF, 168 h, read-out: EC50 (GFP-RA)
Excerpt: The in vitro effects of the compositions according to the present invention on the replication of the HCMV (human cytomegalovirus) can be seen in the following antiviral assay:
The solution from Example 8 is used without further dilution in the test. The composition from Example 6A is used as a 50-millimolar (mM) solution in dimethyl sulphoxide (DMSO). Ganciclovir®, Foscarnet® or Cidofovir® can be used as reference compositions. One day before the beginning of the test, 1.5×10^4 human foreskin fibroblasts (NHDF cells)/well are seeded in 200 μl of cell culture medium in Wells B2-G11 of 96-well plates (black with transparent floor). The wells along the edges of each 96-well plate are filled with 200 μl of medium only in order to prevent edge effects. […] The virus used is a recombinant HCMV which has integrated an expression cassette for green fluorescence protein (GFP) in the virus genome (HCMV AD 169 RV-HG [E. M. Borst, K. Wagner, A. Binz, B. Sodeik, and M. Messerle, 2008, J. Virol. 82:2065-2078.]). […] The GFP intensity of each well in a 96-well plate is then determined using a fluorescence scanner (FluoBox; Bayer Technology Services GmbH; filter settings: GFP, Ex 480 nm, Em 520 nm). The measured values thus obtained can be used to determine the EC50 of an anti-HCMV: […]

SMILES	EC50 [nM]
COc1cccc(N2CCN(C3=Nc4c(F)cccc4[C@H](CC(=O)O)N3c3cc(C(F)(F)F)ccc3OC)CC2)c1 [Example 6A, (S)-{8-fluoro-2-[4-(3-methoxyphenyl)piperazine-1-yl]-3-(2-methoxy-5-trifluoromethylphenyl)-3,4-dihydroquinazoline-4-yl}acetic acid]	2.2 ± 0.2
Nc1nc(O)c2ncn(COC(CO)CO)c2n1 [Ganciclovir]	2500 ± 400
